From US9572893B2, “Nanocomplex containing cationic peptide for biomolecule delivery” (Council of Scientific and Industrial Research, priority 2012, dated 2017)
Where a SMILES comes first, the peptide text is derived from it.

Experiments:
Type in all cases: cell-based
[1] = Cytotoxicity of nanocomplex using MTT assay; conditions: CHO-K1 cells, charge ratio 10.0, treated 4 hours; read-out: cell viability
Procedure: (§1) FIG. 3: Cell viability measured via MTT assay and CellTitreGLO assay. CHO-K1 cells and HACAT cells were treated with arginines-histidine-cysteine based peptides comprising nanocomplexes (at charge ratio 10.0) and a Lipofectamine™/Cellfectin™/Superfect™-DNA complex for 4 hours and cell viability was assessed after 24 hours. Untreated cells are taken as control and their absorbance (in the presence of MTT reagent and cell titre GLO reagent) is set as 100% and relative decrease in absorbance is taken as measure of cell viability.
(§2) CHO-K1 cells were seeded at density of 7000 cells per well in 96 well plate format in Hams F12K media containing 10% FBS at 37° C. and 5% CO2 in humidified incubator. After 24 hours cells were washed with serum free media and treated with different nanocomplex at Z=10.0 (in quadruplets) for 4 hours, keeping DNA concentration 200 ng/well. The viability was assayed after 4 hrs and 24 hrs (in the latter case nanocomplex containing media was replaced with complete media after 4 hrs) of transfection. Briefly 100 ul of MTT reagent (0.5 mg/ml) was added to each well and incubated at 37° C. for 2 hrs to allow formation of formazan crystals. […] Following incubation 100 ul MTT detergent buffer (0.5 ml 10% SDS and 0.06 ml 12N HCl in 10 ml isopropanol) was added to each well and crystals were dissolved by gentle shaking for 30 mins. Finally the absorbance was recorded at 550 nm and 670 nm (to negate debris) along with the blank using ELISA plate reader. The percentage viability was calculated by Treated wells (OD550−OD670)/Untreated well (OD550−OD670)*100. The average of two independent experiments is plotted where each treatment is performed in quadruplets.

CHO-K1 cells = test: Cytotoxicity of nanocomplex using MTT assay
Procedure: as §1, §2

[2] = Cytotoxicity estimation using Celltitre GLO method; conditions: human; Hacat cells, charge ratio 10.0, treated 4 hours; read-out: cell viability
Procedure: as §1
(§3) The experiment was performed in 96 well plate format wherein the Hacat cells were seeded at 50000 cells per well in DMEM-F12 media containing 10% FBS at 37° C. and 5% CO2 in humidified incubator. After 24 hours cells were washed with serum free media and treated with nanocomplex at Z=10.0 (in quadruplets) for 4 hours, keeping DNA concentration 200 ng/well. The viability was assayed after 4 hrs and 24 hrs (in the latter case nanocomplex containing media was replaced with complete media after 4 hrs) of transfection. Initially the plate was equilibrated for 30 mins at RT followed by addition of 100 ul of cell titre GLO reagent with continuous shaking on rotor for 2 mins to allow cell lysis. The plate was then kept in dark for 10 mins at RT for stabilization of the luminescence signal. The reading was recorded on Tecan system and plotted as % cell viability.

Hacat cells = test: Cytotoxicity estimation using Celltitre GLO method
Procedure: as §1, §3

[3] = system: CHO-K1 cells and HACAT cells; test: Cell viability / cytotoxicity, cell line not stated (MTT and CellTitreGLO); conditions: cell line not stated
Procedure: as §1
CHO-K1 cells were seeded at density of 7000 cells per well in 96 well plate format in Hams F12K media containing 10% FBS at 37° C. and 5% CO2 in humidified incubator. […] Finally the absorbance was recorded at 550 nm and 670 nm (to negate debris) along with the blank using ELISA plate reader. The percentage viability was calculated by Treated wells (OD550−OD670)/Untreated well (OD550−OD670)*100. […]
The experiment was performed in 96 well plate format wherein the Hacat cells were seeded at 50000 cells per well in DMEM-F12 media containing 10% FBS at 37° C. and 5% CO2 in humidified incubator. […] The plate was then kept in dark for 10 mins at RT for stabilization of the luminescence signal. The reading was recorded on Tecan system and plotted as % cell viability.

| Structure (SMILES) | viability at 4 h [1] | cell viability compared to Cellfectin and Superfect transfection agents (CHO-K1 cells) | viability at 4 h [2] | cell viability compared to Cellfectin (Hacat cells) | cytotoxicity [3] |
| --- | --- | --- | --- | --- | --- |
| N=C(N)NCCC[C@H](NC(=O)[C@H](CCCNC(=N)N)NC(=O)[C@H](CCCNC(=N)N)NC(=O)[C@H](CCCNC(=N)N)NC(=O)[C@H](Cc1c[nH]cn1)NC(=O)[C@H](Cc1c[nH]cn1)NC(=O)[C@H](Cc1c[nH]cn1)NC(=O)[C@H](Cc1c[nH]cn1)NC(=O)[C@H](CCCNC(=N)N)NC(=O)[C@H](CCCNC(=N)N)NC(=O)[C@H](CCCNC(=N)N)NC(=O)[C@H](CCCNC(=N)N)NC(=O)[C@H](CCCNC(=N)N)NC(=O)[C@@H](N)CS)C(=O)N[C@@H](Cc1c[nH]cn1)C(=O)N[C@@H](Cc1c[nH]cn1)C(=O)N[C@@H](Cc1c[nH]cn1)C(=O)N[C@@H](CS)C(=O)O [CR5H4R4H3C, CRRRRRHHHHRRRRHHHC] (H-CRRRRRHHHHRRRRHHHC-OH) | 80 to 90% | comparable | 80 to 90% | comparable | minimal |
| N=C(N)NCCC[C@H](NC(=O)[C@H](Cc1c[nH]cn1)NC(=O)[C@H](CCCNC(=N)N)NC(=O)[C@H](Cc1c[nH]cn1)NC(=O)[C@H](CCCNC(=N)N)NC(=O)[C@H](Cc1c[nH]cn1)NC(=O)[C@H](CCCNC(=N)N)NC(=O)[C@H](Cc1c[nH]cn1)NC(=O)[C@H](CCCNC(=N)N)NC(=O)[C@H](Cc1c[nH]cn1)NC(=O)[C@H](CCCNC(=N)N)NC(=O)[C@H](Cc1c[nH]cn1)NC(=O)[C@H](CCCNC(=N)N)NC(=O)[C@H](Cc1c[nH]cn1)NC(=O)[C@H](CCCNC(=N)N)NC(=O)[C@H](CCCNC(=N)N)NC(=O)[C@@H](N)CS)C(=O)N[C@@H](CS)C(=O)O [CR(RH)7RC, CRRHRHRHRHRHRHRHRC] (H-CRRHRHRHRHRHRHRHRC-OH) | 70 to 80% | comparable | 80 to 90% | comparable | minimal |
